Data published in publication PMC9658513, “Discovery of Compounds That Selectively Repress the Amyloidogenic Processing of the Amyloid Precursor Protein: Design, Synthesis and Pharmacological Evaluation of Diphenylpyrazoles” (International Journal of Molecular Sciences, 2022).

Tests used:
Assay type in all cases: cell-based, human
p62/LC3 = assay: Ratio between p62 and LC3 expression levels; conditions: compound at 3 µM, 24 h, SY5Y-APP^wt cells
Excerpt: Compounds from both series were selected to first determine the potential relationship between the repression of Aβ1–x production and the increased expression of LC3 and p62. […] We then also considered the ratio between the p62 and LC3 expression levels.
Figure 3 Effect of compounds 24, 33, 34, 57, 65, 67, 70, and 71 on the autophagic flux in SY5Y-APP^wt cells. […] Cell lysates were immunolabeled with the following antibodies: p62 (a), LC3 (b), and β-actin. Statistical significance was set at * p < 0.05, ** p < […], *[…], **** p < 0.0001, and ns as not significant.

p62 = assay: Autophagic flux: p62 expression by Western blot; conditions: 24 h, compound at 3 µM, SY5Y-APP^wt cells, vs control; for fold induction at 3 µM: Homo sapiens
Excerpt: Previous work dedicated to compounds of family C [22] has underlined the effect of our compounds on autophagic flux and the lysosomal degradation pathways. More precisely, the role of the amino side chains and their number was highlighted. Therefore, we assessed whether the activity of compounds involved the modulation of lysosomal activities toward the accumulation of APP-CTFs and AICD. Thus, we studied the effect of a selection of compounds on the autophagic flux, more particularly, we evaluated the effect of compounds 24, 33, 34, 57, 65, 67, 70, and 71 on two markers associated with autophagy: p62 and LC3-I lipidation into LC3-II. To the previous selection of efficient compounds decreasing Aβ1–x production and increasing CTFα and AICD, we added compound 65 with no cytotoxicity at 100 µM. As a comparison, we also selected compound 57 with a hydroxymethyl substituent as a control. In addition to CQ, bafilomycin A, a well-known inhibitor of autophagic flux, was used as a control. Treatment with compounds 67 and 71 induced an increase in p62 expression by 2.5 and 4-fold, respectively, compared to the control condition (Figure 3). […] An increase in the two markers was also observed with compound 57, but to a smaller extent (1.7-fold for p62 and 2-fold for LC3-I/LC3-II).
The human neuroblastoma cell line SY5Y-APP^695WT was maintained in Dulbecco’s modified Eagle medium (DMEM, high glucose, pyruvate—GIBCO, Life Technologies, Carlsbad, CA, USA) supplemented with 10% fetal bovine serum, 2 mM L-glutamine, 1 mM non-essential amino acids and penicillin/streptomycin (GIBCO, Life Technologies, Carlsbad, CA, USA) at 37 °C in a 5% CO2 humidified incubator [36]. For compound treatment, a 10 mM stock solution was diluted in freshly supplemented DMEM medium to obtain the precise final concentration of the drug. Cells were plated at a density of 5 × 10^5 cells per well into 12-well plates and cultured with 1 mL supplemented DMEM cell medium for 24 h before compound exposure. The following day, the cell medium was replaced with fresh medium containing the compounds diluted at the indicated concentrations. Cells were treated for 24 h. At the end of the treatments, the cell medium was collected and kept at −80 °C until use, cells were rinsed once with PBS and extracted in 100 µL of Laemmli buffer (10 mM Tris, 20% glycerol, and 2% sodium dodecyl sulfate) using a cell-scraper. The cell lysate was further sonicated (30 pulses of 0.5 s, 60 Hz) for 5 min. Total protein concentration was determined using the Pierce BCA Protein Assay Kit (Thermo Scientific, Waltham, MA, USA) according to the manufacturer’s instructions. Samples were stored at −80 °C until analysis.
Cell protein lysates were prepared for Western blot analysis by diluting the sample with 1 volume of NuPAGE® lithium dodecyl sulfate (LDS) 2X sample buffer supplemented with 20% NuPAGE® sample reducing agents (Invitrogen). Samples were heated for 10 min at 100 °C. Ten µg of total proteins per well were loaded onto precast 4–12% Criterion XT Bis-Tris polyacrylamide gels (Bio-Rad) and electrophoresis was achieved after applying a tension of 150 V for 90 min using a Criterion electrophoresis cell with the NuPAGE® MOPS SDS running buffer (1X). Proteins were transferred to a nitrocellulose membrane of […] pore size (G&E Healthcare, Madison, WI, USA) using the Criterion blotting system and applying a tension of 100 V for 45 min. To resolve proteins of low molecular weights such as carboxy-terminal fragments of APP, 12% Criterion XT Bis-Tris polyacrylamide gels (Bio-Rad, Hercules, CA, USA) were used, and electrophoresis was performed for 70 min at 150 V in a NuPAGE® MES SDS running buffer (1X). Proteins were transferred to a nitrocellulose membrane of 0.2 µm pore size (G&E Healthcare, Madison, WI, USA) at 100 V for 40 min. Molecular weight calibration was achieved using molecular weight markers (Novex and Magic Marks, Life Technologies, Carlsbad, CA, USA). […]

in vitro = conditions: human
Summary of the method: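 Cells seeded at 3 × 10^4 per well, attached 24 h, then exposed to drug for 72 h in DMEM with 10% SVF. Viability by MTS colorimetric assay, absorbance at 490 nm.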

Row | Compound | p62/LC3 (p62/LC3) | fold induction at 3 µM (p62) | CC50 at 72 h (in vitro) [µM] | p62 (p62) [Fold-change]
1 | CN(C)CCCc1ccc(-c2nn(-c3ccc(CN(C)C)cc3)cc2CN(C)C)cc1 [Compound 24, 3-[4-[4-(Dimethylaminomethyl)-1-[4-(dimethylaminomethyl)phenyl] Pyrazol-3-yl]phenyl]-N,N-dimethyl-propan-1-amine] | 0.49 | 1.64 | > 100 | 
2 | Cc1cn(-c2cccc(CO)c2)nc1-c1ccc(CN(C)CCCN(C)C)cc1 [Compound 57, (3-{3-[4-({[3-(Dimethylamino)propyl](methyl)amino}methyl)phenyl]-4-methyl-1H-pyrazol-1-yl}phenyl)methanol] | 0.71 | 1.7 | > 100 | 
3 | Cc1cn(-c2cccc(CN3CCN(C)CC3)c2)nc1-c1cccc(CN(C)C)c1 [Compound 65, N,N-dimethyl-1-[3-[4-methyl-1-[3-[(4-methylpiperazin-1-yl)methyl]phenyl]pyrazol-3-yl]phenyl]methanamine] | 0.63 | 1.64 | > 100 | 
4 | Cc1cn(-c2cccc(CN(C)C)c2)nc1-c1ccc(CN(C)CCCN(C)C)cc1 [Compound 67, {[4-(1-{3-[(Dimethylamino)methyl]phenyl}-4-methyl-1H-pyrazol-3-yl)phenyl]methyl} [3-(Dimethylamino)propyl]methylamine] | 0.51 | 2.5 | 12 | 
5 | Cc1cn(-c2cccc(CN(C)C)c2)nc1-c1cccc(CN(C)CCCN(C)C)c1 [Compound 70, N′-[[3-[1-[3-(Dimethylaminomethyl)phenyl]-4-methyl-pyrazol-3-yl]phenyl] Methyl]-N,N,N′-trimethyl-propane-1,3-diamine] | 0.30 | 3 | 51 | 
6 | Cc1cn(-c2cccc(CN3CCN(C)CC3)c2)nc1-c1cccc(CN(C)CCCN(C)C)c1 [Compound 71, N,N,N′-Trimethyl-N′-[[3-[4-methyl-1-[3-[(4-methylpiperazin-1-yl)methyl]phenyl]pyrazol-3-yl]phenyl]methyl]propane-1,3-diamine] | 0.34 | 4 | 25 | 
7 | N′-[[4-[4-[3-(Dimethylamino)propyl]-3-[4-[3-(dimethylamino)propyl]phenyl] Pyrazol-1-yl]phenyl]methyl]-N,N,N′-trimethyl-propane-1,3-diamine [Compound 33] | 0.98 |  |  | 1.04
